The subject of experiment [1] is Cl. perfringens. The following applies: British Pat. No. 1303171 and Application No. 36289/70; cited from earlier work.
Experiment [2] concerns Derm. dermatonomous. To be noted: British Pat. No. 1303171 and Application No. 36289/70; cited from earlier work.
The test system of experiment [3] is Staphylococcus aureus. Nature of the experiment: Inhibitor zone test, pteridine in agar with TMP and/or SMX in the well. The class given is cell-based. To be noted: conclusion from Table 3. Here is the method: The pteridine was included in a soya peptone medium of low thymidine content (Wellcotest Sensitivity test agar) contained in a Petri dish and the other component(s) added to the well resulting from the removal of a small plug from the medium. The surface of the medium was inoculated with the test organism and then incubated. The amount of zone inhibition is shown in Table 3, wherein the numbers represent the complete zone inhibition (i.e. the number of […] from the edge of the well after about 6 × magnification) and the figures in parenthesis include the zones of partial inhibition.

Experiment [4] deals with hydroxymethyldihydropteridine pyrophosphokinase (HMPPS) (Escherichia coli, UniProt P26281). Nature of the experiment: Inhibition of the enzymes forming dihydropteroic acid (HMPPS ATP-γ-P32 transfer assay; synthetase pAB-C14 assay). In kind it is biochemical. The following applies: E. coli extract enzymes; result of tests (a) HMPPS and (b) synthetase. The protocol:
The inhibiting activity against HMPPS of a selected compound of formula (I) can, for instance, be tested by monitoring the transfer of the terminal phosphate of adenosinetriphosphate/ATP-γ-P^32 to `dihydropteridine`. […] Such inhibition may, for instance, be easily and simply carried out by incubating an extract of E. coli with pAB-7-C^14, ATP, Mg and `dihydropteridine`. The formation of the dihydropteroate-C^14 can be quantitatively assayed after separating the unreacted pAB substrate, for instance by chromatography. […] Preferably the value is 25μM or less, such as in the range between 2 to 12μM. Generally a value below 7μM is desirable. […]
(a) An assay for HMPPS was developed in which the transfer of the terminal phosphate of ATP-γ-P^32 to Pt could be monitored and correlated with the amount of inhibition of HMPPS by the compound under test. […]
Tubes 1 to 9 containing the amounts of components shown in the Table, were filled up to 200μl with distilled water, incubated for 60 minutes at 37° C and then chilled on ice. […] The charcoal and the filter were then radioactively counted. […]
(b) The activity of the test compound of formula (I) against `synthetase` was determined as follows, by monitoring the formation of dihydropteroate C^14. […]

Sequence of hydroxymethyldihydropteridine pyrophosphokinase (HMPPS) (P26281 whole entry): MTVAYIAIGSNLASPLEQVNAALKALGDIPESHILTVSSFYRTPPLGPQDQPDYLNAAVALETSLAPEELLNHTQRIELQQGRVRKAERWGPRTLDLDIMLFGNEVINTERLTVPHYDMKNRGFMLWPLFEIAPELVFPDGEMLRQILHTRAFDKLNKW

For the molecule `CC1(C)Nc2nc(N)nc(O)c2N=C1CO` [2-amino-4-hydroxy-6-hydroxymethyl-7,7-dimethyl-7,8-dihydropteridine], the bacteriostatic activity result in experiment [1] and in experiment [2] was “particularly effective” in each case.
As to `CC1=Nc2c(nc(N)[nH]c2=O)NC1(C)C` [2-amino-4-hyroxy-6-methyl-7,7-dimethyl-7,8-dihydropteridine], the bacteriostatic activity entry in experiment [1] and in experiment [2] was “particularly effective” in each case.
A word on the IC50: it is the point on the concentration scale where inhibition reaches its midpoint. Low readings indicate greater potency in that assay, high ones weaker potency in that assay. Regarding `CCC1(CC)Nc2nc(N)nc(O)c2N=C1CO` [R=CH2 OH R^1 =R^2 =Et, 2-amino-4-hydroxy-6-hydroxymethyl-7,7-diethyl-7,8-dihydropteridine], the “synergistic activity with TMP and/or SMX” value in experiment [3] is “synergism with TMP and SMX alone and multiple synergism with both”. Also, the IC50 in experiment [4] amounted to 2.1 µM.

(Values after US4073786A, “2-Amino-4-hydroxy-6-hydroxymethyl-7,7-diethyl-7,8-dihydropteridine and the 7-spirocyclohexyl analogue thereof” (Burroughs Wellcome Co., priority 1975, dated 1978).)
